# How the values were obtained:
# [1] = system: transcriptional activity of hTERT; test: SEAP reporter assay of hTERT expression, PhTERT-SEAP (hTERT-BJ1); assay type: cell-based, human; settings: PhTERT-SEAP (hTERT-BJ1)
# How it was run: (§1)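 Drug exposure: varying amounts, 24 h, following 24 h culture at 37° C and fresh medium. Media heat-inactivated (65° C, 10 min) to remove endogenous phosphatases, then combined 1:1 with diethanolamine/MgCl2/homoarginine buffer and 12 mM p-nitrophenyl phosphate; A405 slope recorded.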
# hTERT-BJ1 cells = test: MTT relative viability, PhTERT-SEAP (hTERT-BJ1) cells; settings: PhTERT-SEAP (hTERT-BJ1)
# [2] = system: hepatitis B virus transfected hepatoma cell lines, HepG 2.2.15 cells; test: Cytotoxicity assay, 2.2.15 cells; assay type: cell-based, human; settings: 48 h of drug exposure
# [3] = system: transcriptional activity of hTERT; test: SEAP reporter assay of hTERT expression, PhTERT-SEAP (H1299); assay type: cell-based, human; settings: PhTERT-SEAP(hTERT-H1299)
# How it was run: as §1
# rat glioma C6 cells = test: Cytotoxicity assay (XTT colorimetric), C6 cells; assay type: cell-based; settings: 48 h of drug exposure
# human hepatoma G2 cells = test: Cytotoxicity assay (XTT colorimetric), Hep G2; assay type: cell-based; settings: 48 h of drug exposure
# [4] = system: non-small-cell lung cancer cells H1299; test: MTT relative viability, PhTERT-SEAP (H1299) cells; settings: PhTERT-SEAP(hTERT-H1299)
smiles,measurement,setting,value
"O=C(Nc1ccc(NC(=O)c2ccc(Cl)cc2)c2c1C(=O)c1ccccc1C2=O)c1ccc(Cl)cc1 [VI16, 1,4-Bis(4-chlorobenzoylamido)-9,10-anthracenedione]",Relative SEAP activity (%),[1]; 1.9 μM,116 ± 28.6%
same,SEAP/vibility,[1]; 1.9 μM,1.05
same,Relative SEAP activity (%),[1]; 19 μM,112 ± 21.9%
same,SEAP/vibility,[1]; 19 μM,1.09
same,Relative SEAP activity (%),[1]; 194 μM,152 ± 39.7%
same,SEAP/vibility,[1]; 194 μM,1.54
same,Relative MTT viability (%),hTERT-BJ1 cells; 1.9 μM,111 ± 0.8%
same,Relative MTT viability (%),hTERT-BJ1 cells; 19 μM,103 ± 5.9%
same,Relative MTT viability (%),hTERT-BJ1 cells; 194 μM,99 ± 5.2%
same,IC50,[2],> 20 µM
same,Relative SEAP activity (%),[3]; 1.9 μM,109 ± 6.8%
same,SEAP/vibility,[3]; 1.9 μM,1.23
same,Relative SEAP activity (%),[3]; 19 μM,118 ± 5.6%
same,SEAP/vibility,[3]; 19 μM,1.33
same,Relative SEAP activity (%),[3]; 194 μM,116 ± 12.3%
same,SEAP/vibility,[3]; 194 μM,1.46
same,IC50,rat glioma C6 cells,> 20 µM
same,IC50,human hepatoma G2 cells,> 20 µM
same,Relative MTT viability (%),[4]; 1.9 μM,89 ± 5.5%
same,Relative MTT viability (%),[4]; 19 μM,89 ± 9.5%
same,Relative MTT viability (%),[4]; 194 μM,79 ± 5.6%
"O=C(Nc1ccc(NC(=O)c2ccc(F)cc2F)c2c1C(=O)c1ccccc1C2=O)c1ccc(F)cc1F [VI18, 1,4-Bis(2,4-difluorobenzoylamido)-9,10-anthracenedione]",Relative SEAP activity (%),[1]; 1.9 μM,48 ± 21.7%
same,SEAP/vibility,[1]; 1.9 μM,0.46
same,Relative SEAP activity (%),[1]; 19 μM,51 ± 18.5%
same,SEAP/vibility,[1]; 19 μM,0.50
same,Relative SEAP activity (%),[1]; 192 μM,48 ± 23.1%
same,SEAP/vibility,[1]; 192 μM,0.46
same,Relative MTT viability (%),hTERT-BJ1 cells; 1.9 μM,104 ± 5.6%
same,Relative MTT viability (%),hTERT-BJ1 cells; 19 μM,101 ± 4.4%
same,Relative MTT viability (%),hTERT-BJ1 cells; 192 μM,103 ± 6.1%
same,IC50,[2],> 20 µM
same,Relative SEAP activity (%),[3]; 1.9 μM,93 ± 5.6%
same,SEAP/vibility,[3]; 1.9 μM,1.06
same,Relative SEAP activity (%),[3]; 19 μM,99 ± 5.4%
same,SEAP/vibility,[3]; 19 μM,1.17
same,Relative SEAP activity (%),[3]; 192 μM,99 ± 1.8%
same,SEAP/vibility,[3]; 192 μM,1.44
same,IC50,rat glioma C6 cells,> 20 µM
same,IC50,human hepatoma G2 cells,> 20 µM
same,Relative MTT viability (%),[4]; 1.9 μM,87 ± 3.7%
same,Relative MTT viability (%),[4]; 19 μM,85 ± 7.1%
same,Relative MTT viability (%),[4]; 192 μM,69 ± 8.4%
"O=C1c2ccccc2C(=O)c2c(NC(=O)C3CCCC3)ccc(NC(=O)C3CCCC3)c21 [VI20, 1,4-Bis(cyclopentaneamido)-9,110-anthracenedione]",Relative SEAP activity (%),[1]; 2.3 μM,85 ± 7.7%
same,SEAP/vibility,[1]; 2.3 μM,0.81
same,Relative SEAP activity (%),[1]; 23 μM,93 ± 18.5%
same,SEAP/vibility,[1]; 23 μM,0.90
same,Relative SEAP activity (%),[1]; 233 μM,63 ± 36.5%
same,SEAP/vibility,[1]; 233 μM,0.67
same,Relative MTT viability (%),hTERT-BJ1 cells; 2.3 μM,106 ± 2.3%
same,Relative MTT viability (%),hTERT-BJ1 cells; 23 μM,103 ± 4.4%
same,Relative MTT viability (%),hTERT-BJ1 cells; 233 μM,93 ± 5.7%
same,IC50,[2],> 20 µM
same,Relative SEAP activity (%),[3]; 2.3 μM,119 ± 8.5%
same,SEAP/vibility,[3]; 2.3 μM,1.11
same,Relative SEAP activity (%),[3]; 23 μM,118 ± 9.2%
same,SEAP/vibility,[3]; 23 μM,1.15
same,Relative SEAP activity (%),[3]; 233 μM,113 ± 8.9%
same,SEAP/vibility,[3]; 233 μM,1.23
same,IC50,rat glioma C6 cells,> 20 µM
same,IC50,human hepatoma G2 cells,> 20 µM
same,Relative MTT viability (%),[4]; 2.3 μM,107 ± 6.1%
same,Relative MTT viability (%),[4]; 23 μM,103 ± 6.1%
same,Relative MTT viability (%),[4]; 233 μM,92 ± 8.6%
"O=C1c2ccccc2C(=O)c2c(NC(=O)C3CC3)ccc(NC(=O)C3CC3)c21 [VI21, 1,4-Bis(cyclopropionamido)-9,10-anthracenedione]",Relative SEAP activity (%),[1]; 2.6 μM,64 ± 9.5%
same,SEAP/vibility,[1]; 2.6 μM,0.62
same,Relative SEAP activity (%),[1]; 26 μM,54 ± 8.8%
same,SEAP/vibility,[1]; 26 μM,0.66
same,Relative SEAP activity (%),[1]; 267 μM,43 ± 8.3%
same,SEAP/vibility,[1]; 267 μM,0.74
same,Relative MTT viability (%),hTERT-BJ1 cells; 2.6 μM,103 ± 6.8%
same,Relative MTT viability (%),hTERT-BJ1 cells; 26 μM,82 ± 5.9%
same,Relative MTT viability (%),hTERT-BJ1 cells; 267 μM,58 ± 4.1%
same,IC50,[2],> 20 µM
same,Relative SEAP activity (%),[3]; 2.6 μM,108 ± 4.9%
same,SEAP/vibility,[3]; 2.6 μM,1.14
same,Relative SEAP activity (%),[3]; 26 μM,106 ± 7.3%
same,SEAP/vibility,[3]; 26 μM,1.21
same,Relative SEAP activity (%),[3]; 267 μM,92 ± 5.9%
same,SEAP/vibility,[3]; 267 μM,2.23
same,IC50,rat glioma C6 cells,> 20 µM
same,IC50,human hepatoma G2 cells,> 20 µM
same,Relative MTT viability (%),[4]; 2.6 μM,95 ± 4.2%
same,Relative MTT viability (%),[4]; 26 μM,88 ± 4.2%
same,Relative MTT viability (%),[4]; 267 μM,41 ± 4.6%
O=C(Nc1ccc(NC(=O)c2cc(F)cc(Cl)c2Cl)c2c1C(=O)c1ccccc1C2=O)c1cc(F)cc(Cl)c1Cl [VI23],Relative SEAP activity (%),[1]; 1.6 μM,113 ± 16.0%
same,SEAP/vibility,[1]; 1.6 μM,1.02
same,Relative SEAP activity (%),[1]; 16 μM,131 ± 19.1%
same,SEAP/vibility,[1]; 16 μM,1.20
same,Relative SEAP activity (%),[1]; 161 μM,106 ± 17.3%
same,SEAP/vibility,[1]; 161 μM,1.05
same,Relative MTT viability (%),hTERT-BJ1 cells; 1.6 μM,111 ± 6.8%
same,Relative MTT viability (%),hTERT-BJ1 cells; 16 μM,110 ± 7.1%
same,Relative MTT viability (%),hTERT-BJ1 cells; 161 μM,101 ± 6.6%
same,IC50,[2],> 20 µM
same,Relative SEAP activity (%),[3]; 1.6 μM,102 ± 4.1%
same,SEAP/vibility,[3]; 1.6 μM,1.04
same,Relative SEAP activity (%),[3]; 16 μM,102 ± 5.1%
same,SEAP/vibility,[3]; 16 μM,0.99
same,Relative SEAP activity (%),[3]; 161 μM,83 ± 4.0%
same,SEAP/vibility,[3]; 161 μM,0.95
same,IC50,rat glioma C6 cells,> 20 µM
same,IC50,human hepatoma G2 cells,> 20 µM
same,Relative MTT viability (%),[4]; 1.6 μM,98 ± 7.0%
same,Relative MTT viability (%),[4]; 16 μM,103 ± 8.7%
same,Relative MTT viability (%),[4]; 161 μM,87 ± 5.1%
"O=C(Nc1ccc(NC(=O)c2ccco2)c2c1C(=O)c1ccccc1C2=O)c1ccco1 [VI24, 1,4-Bis(2-furoylamido)-9,10-anthracenedione]",Relative SEAP activity (%),[1]; 2.3 μM,39 ± 7.8%
same,SEAP/vibility,[1]; 2.3 μM,0.43
same,Relative SEAP activity (%),[1]; 23 μM,45 ± 11.0%
same,SEAP/vibility,[1]; 23 μM,0.65
same,Relative SEAP activity (%),[1]; 234 μM,37 ± 15.0%
same,SEAP/vibility,[1]; 234 μM,0.51
same,Relative MTT viability (%),hTERT-BJ1 cells; 2.3 μM,91 ± 9.5%
same,Relative MTT viability (%),hTERT-BJ1 cells; 23 μM,69 ± 10.7%
same,Relative MTT viability (%),hTERT-BJ1 cells; 234 μM,72 ± 11.3%
same,IC50,[2],> 20 µM
same,Relative SEAP activity (%),[3]; 2.3 μM,99 ± 7.8%
same,SEAP/vibility,[3]; 2.3 μM,0.99
same,Relative SEAP activity (%),[3]; 23 μM,97 ± 4.6%
same,SEAP/vibility,[3]; 23 μM,1.30
same,Relative SEAP activity (%),[3]; 234 μM,90 ± 2.9%
same,SEAP/vibility,[3]; 234 μM,2.83
same,IC50,rat glioma C6 cells,> 20 µM
same,IC50,human hepatoma G2 cells,> 20 µM
same,Relative MTT viability (%),[4]; 2.3 μM,101 ± 6.0%
same,Relative MTT viability (%),[4]; 23 μM,75 ± 3.9%
same,Relative MTT viability (%),[4]; 234 μM,32 ± 5.1%
"Cc1cc(C(=O)Nc2ccc(NC(=O)c3cc(C)oc3C)c3c2C(=O)c2ccccc2C3=O)c(C)o1 [VI26, 1,4-Bis(2,5-dimethylfuran-3-carbonylamido)-9,10-anthracenedione]",Relative SEAP activity (%),[1]; 2.0 μM,84 ± 13.3%
same,SEAP/vibility,[1]; 2.0 μM,0.83
same,Relative SEAP activity (%),[1]; 20 μM,79 ± 14.7%
same,SEAP/vibility,[1]; 20 μM,0.78
same,Relative SEAP activity (%),[1]; 207 μM,81 ± 16.1%
same,SEAP/vibility,[1]; 207 μM,0.88
same,Relative MTT viability (%),hTERT-BJ1 cells; 2.0 μM,101 ± 6.2%
same,Relative MTT viability (%),hTERT-BJ1 cells; 20 μM,101 ± 5.8%
same,Relative MTT viability (%),hTERT-BJ1 cells; 207 μM,93 ± 7.1%
same,IC50,[2],> 20 µM
same,Relative SEAP activity (%),[3]; 2.0 μM,104 ± 10.8%
same,SEAP/vibility,[3]; 2.0 μM,1.20
same,Relative SEAP activity (%),[3]; 20 μM,103 ± 10.0%
same,SEAP/vibility,[3]; 20 μM,1.46
same,Relative SEAP activity (%),[3]; 207 μM,98 ± 10.5%
same,SEAP/vibility,[3]; 207 μM,2.10
same,IC50,rat glioma C6 cells,> 20 µM
same,IC50,human hepatoma G2 cells,> 20 µM
same,Relative MTT viability (%),[4]; 2.0 μM,87 ± 4.9%
same,Relative MTT viability (%),[4]; 20 μM,71 ± 2.3%
same,Relative MTT viability (%),[4]; 207 μM,47 ± 2.6%
"O=C(CSc1ccccc1)Nc1ccc(NC(=O)CSc2ccccc2)c2c1C(=O)c1ccccc1C2=O [VI28, 1,4-Bis(phenylthioacetamido)-9,10-anthracenedione]",Relative SEAP activity (%),[1]; 1.8 μM,14 ± 14.7%
same,SEAP/vibility,[1]; 1.8 μM,0.12
same,Relative SEAP activity (%),[1]; 18 μM,23 ± 9.5%
same,SEAP/vibility,[1]; 18 μM,0.21
same,Relative SEAP activity (%),[1]; 185 μM,7 ± 9.6%
same,SEAP/vibility,[1]; 185 μM,0.12
same,Relative MTT viability (%),hTERT-BJ1 cells; 1.8 μM,115 ± 4.8%
same,Relative MTT viability (%),hTERT-BJ1 cells; 18 μM,105 ± 6.7%
same,Relative MTT viability (%),hTERT-BJ1 cells; 185 μM,60 ± 2.3%
same,IC50,[2],> 20 µM
same,Relative SEAP activity (%),[3]; 1.8 μM,93 ± 3.2%
same,SEAP/vibility,[3]; 1.8 μM,0.89
same,Relative SEAP activity (%),[3]; 18 μM,92 ± 3.5%
same,SEAP/vibility,[3]; 18 μM,0.96
same,Relative SEAP activity (%),[3]; 185 μM,80 ± 4.0%
same,SEAP/vibility,[3]; 185 μM,1.35
same,IC50,rat glioma C6 cells,> 20 µM
same,IC50,human hepatoma G2 cells,> 20 µM
same,Relative MTT viability (%),[4]; 1.8 μM,104 ± 5.6%
same,Relative MTT viability (%),[4]; 18 μM,96 ± 4.3%
same,Relative MTT viability (%),[4]; 185 μM,59 ± 3.8%

# — patent US20050009924A1 (priority 2003, published 2005)
